Source: patent publication US20020052295A1, “Diacyl derivatives of propylene diamine having herbicidal activity” (priority 1999, published 2002)

Experiments:
Conditions in all cases: lowest tested rate giving 80% or greater inhibition, approx. 14 days after planting and treating, greenhouse
[1] = system: ABUTH; assay: Pre-emergence herbicidal activity on ABUTH (velvetleaf); type: in vivo, Abutilon theophrasti
Source text: (§1) All such uses, and the biological activity enabling such uses, are embraced by the term “herbicidal” herein. Tables 15 and 16 summarize results of tests conducted as described below to determine the pre-emergence herbicidal activity, in the form of a GR80 value, of illustrative compounds of this invention. […] Where herbicidal activity was evident but 80% inhibition was not achieved at the highest rate tested (typically 1000 g/ha), an asterisk (*) is shown in the following tables. Herbicidal activity evident in the form of symptoms of phytotoxicity, in the absence of at least 80% inhibition at any rate, is indicated in the tables by “phyto”. A blank cell in the following tables indicates no herbicidal or phytotoxic response at any rate tested.
(§2) The pre-emergence tests were conducted by the following procedure. Topsoil was sieved to pass through a 1.27 cm screen. Fertilizer was added to the topsoil and the mixture was then sterilized by heating. The topsoil mixture was placed in a pot and compacted to a depth of 1.0 to 1.25 cm from the top of the pot. Seeds of each of several monocotyledonous and dicotyledonous annual plant species were placed on top of the soil. Additional soil was subsequently placed over the seeds to level-fill the pot. A known amount of each test compound dissolved or suspended in an appropriate organic solvent was diluted with a 50:50 mix of acetone and water and applied to the surface of the soil. After treatment the plants were placed in a greenhouse with a 30/21° C. day/night temperature regime where they received 0.64 cm of overhead irrigation. All subsequent watering consisted of a light overhead mist and/or subirrigation as needed for germination and growth.
(§3) Approximately 14 days after planting and treating, the plants were observed and herbicidal efficacy recorded as percent inhibition by comparison with untreated plants.
(§4) The plant species usually regarded as weeds which were utilized in the tests are identified in the tables below according to the following legend, in which “d” indicates a dicotyledonous species and “m” a monocotyledonous species. All monocotyledonous species included in the tests herein are grasses.

[2] = system: SOLNI; assay: Pre-emergence herbicidal activity on SOLNI (black nightshade); type: in vivo, Solanum nigrum
Source text: as §1, §2, §3, §4

[3] = system: AMARE; assay: Pre-emergence herbicidal activity on AMARE (redroot pigweed); type: in vivo, Amaranthus retroflexus
Source text: as §1, §2, §3, §4

[4] = system: DATST; assay: Pre-emergence herbicidal activity on DATST (jimsonweed); type: in vivo, Datura stramonium
Source text: as §1, §2, §3, §4

[5] = system: CHEAL; assay: Pre-emergence herbicidal activity on CHEAL (common lambsquarters); type: in vivo, Chenopodium album
Source text: as §1, §2, §3, §4

[6] = system: CONAR; assay: Pre-emergence herbicidal activity on CONAR (field bindweed); type: in vivo, Convolvulus arvensis
Source text: as §1, §2, §3, §4

[7] = system: POROL; assay: Pre-emergence herbicidal activity on POROL (common purslane); type: in vivo, Portulaca oleracea
Source text: as §1, §2, §3, §4

[8] = system: CIRAR; assay: Pre-emergence herbicidal activity on CIRAR (canada thistle, seedling); type: in vivo, Cirsium arvense
Source text: as §1, §2, §3, §4

[9] = system: ECHCG; assay: Pre-emergence herbicidal activity on ECHCG (barnyardgrass); type: in vivo, Echinochloa crus-galli
Source text: as §1, §2, §3, §4

[10] = system: PANMI; assay: Pre-emergence herbicidal activity on PANMI (wild proso millet); type: in vivo, Panicum miliaceum
Source text: as §1, §2, §3, §4

[11] = system: SORHA; assay: Pre-emergence herbicidal activity on SORHA (johnsongrass, seedling); type: in vivo, Sorghum halepense
Source text: as §1, §2, §3, §4

[12] = system: SETFA; assay: Pre-emergence herbicidal activity on SETFA (giant foxtail); type: in vivo, Setaria faberi
Source text: as §1, §2, §3, §4

[13] = system: PANDI; assay: Pre-emergence herbicidal activity on PANDI (fall panicum); type: in vivo, Panicum dichotomiflorum
Source text: as §1, §2, §3, §4

[14] = system: BRAPP; assay: Pre-emergence herbicidal activity on BRAPP (broadleaf signalgrass); type: in vivo, Brachiaria platyphylla
Source text: as §1, §2, §3, §4

[15] = system: DIGSA; assay: Pre-emergence herbicidal activity on DIGSA (large crabgrass); type: in vivo, Digitaria sanguinalis
Source text: as §1, §2, §3, §4

| Structure (SMILES) | Pre-emergence activity (GR80) on ABUTH [1] | Pre-emergence activity (GR80) on SOLNI [2] [g/ha] | Pre-emergence activity (GR80) on AMARE [3] [g/ha] | Pre-emergence activity (GR80) on DATST [4] | Pre-emergence activity (GR80) on CHEAL [5] [g/ha] | Pre-emergence activity (GR80) on CONAR [6] | Pre-emergence activity (GR80) on PORAL [7] [g/ha] | Pre-emergence activity (GR80) on CIRAR [8] | Pre-emergence activity (GR80) on ECHCG [9] | Pre-emergence activity (GR80) on PANMI [10] | Pre-emergence activity (GR80) on SORHA [11] | Pre-emergence activity (GR80) on SETFA [12] | Pre-emergence activity (GR80) on PANDI [13] | Pre-emergence activity (GR80) on BRAPP [14] | Pre-emergence activity (GR80) on DIGSA [15] |
| --- | --- | --- | --- | --- | --- | --- | --- | --- | --- | --- | --- | --- | --- | --- | --- |
| Cc1cccc(C(=O)NC(C)CNC(=O)c2cccc(C(F)(F)F)c2)c1Br (stereo not drawn) [Example 66] | 250 g/ha | 750 | 250 | 500 g/ha | 125 | 250 g/ha | 500 | 500 g/ha | 750 g/ha | 750 g/ha | * (Where herbicidal activity was evident but 80% inhibition was not achieved at the highest rate tested (typically 1000 g/ha), an asterisk (*) is shown) | 500 g/ha | 500 g/ha | 1000 g/ha | 750 g/ha |
| Cc1ccccc1C(=O)NC(C)CNC(=O)c1cccc(C(F)(F)F)c1 (stereo not drawn) [Example 109] | phyto | 750 | 250 | 500 g/ha | 750 | phyto | 750 | 750 g/ha | phyto | 1000 g/ha | * (Where herbicidal activity was evident but 80% inhibition was not achieved at the highest rate tested (typically 1000 g/ha), an asterisk (*) is shown) | 750 g/ha | 750 g/ha | * (Where herbicidal activity was evident but 80% inhibition was not achieved at the highest rate tested (typically 1000 g/ha), an asterisk (*) is shown) | 250 g/ha |
| CC(CNC(=O)c1cccc(C(F)(F)F)c1)NC(=O)c1cccc(SC(F)(F)F)c1 (stereo not drawn) [Example 73] | phyto | 1000 | 250 | phyto | 750 | phyto | 750 | phyto | phyto | phyto | phyto | phyto | * (Where herbicidal activity was evident but 80% inhibition was not achieved at the highest rate tested (typically 1000 g/ha), an asterisk (*) is shown) | phyto | phyto |
| CC(CNC(=O)c1cccc(C(F)(F)F)c1)NC(=O)c1cccc(F)c1Cl (stereo not drawn) [Example 37] | 250 g/ha | 250 | 64 | 250 g/ha | 125 | 250 g/ha | 64 | 250 g/ha | 1000 g/ha | 500 g/ha | 1000 g/ha | 250 g/ha | 250 g/ha | 500 g/ha | 250 g/ha |
| Cc1c(Br)cccc1C(=O)NC(C)CNC(=O)c1cccc(C(F)(F)F)c1 (stereo not drawn) [Example 57] | 750 g/ha | 250 | 64 | 125 g/ha | 32 | 250 g/ha | 125 | 500 g/ha | * (Where herbicidal activity was evident but 80% inhibition was not achieved at the highest rate tested (typically 1000 g/ha), an asterisk (*) is shown) | 750 g/ha | * (Where herbicidal activity was evident but 80% inhibition was not achieved at the highest rate tested (typically 1000 g/ha), an asterisk (*) is shown) | 250 g/ha | 125 g/ha | 750 g/ha | 500 g/ha |
| Cc1cccc(C(=O)NC(C)CNC(=O)c2cccc(C(F)(F)F)c2)c1Cl (stereo not drawn) [Example 65] | 250 g/ha | 500 | 125 | 250 g/ha | 32 | 250 g/ha | 125 | 125 g/ha | 500 g/ha | 750 g/ha | * (Where herbicidal activity was evident but 80% inhibition was not achieved at the highest rate tested (typically 1000 g/ha), an asterisk (*) is shown) | 250 g/ha | 125 g/ha | 500 g/ha | 250 g/ha |
